Results reported in patent US20220152031A1, “PYRIDAZINONES AND METHODS OF USE THEREOF” (Goldfinch Bio, Inc., priority 2019, published 2022).
“Also recorded” adds a separate entry of the source.

Experiments:
[1] = test system: PAN-injured rats; assay: Puromycin aminonucleoside (PAN)-induced glomerular injury in rats; assay type: in vivo, Sprague-Dawley rats; settings: for albuminuria: PAN model of glomerular injury in rats
Excerpt: The objective of this study is to evaluate the dose-dependent effects of compound 100 on PAN induced glomerular kidney injury as indexed by albuminuria. Eighty (80), male Sprague-Dawley rats weighing approximately 125-150 g and approximately 5-6 weeks of age were acquired from Charles River. They were fed a standard chow diet (Harlan 8640), housed under standard conditions, and allowed to acclimate for at least 5 days prior to study inception. On D-2, rats were placed into weight-matched treatment groups and were placed, individually housed, into metabolic cages for the balance of the study. A 24 hour baseline (Day 0) urine was collected followed by a baseline blood collection via conscious tail venous puncture. Rats were then administered vehicle or test article. Two (2) hours following administration of vehicle or test agent on Day 0, rats received an administration of (5 mL/kg, s.c.) vehicle (sterile saline) or puromycin aminonucleoside (PAN; challenge agent; 75 mg/kg) dissolved in vehicle. Intermittent (Day 4, 7 and 10) 24 hour urine volumes were determined and samples (4 samples/animal/time point; 0.5 mL/sample) were obtained. Additionally, intermittent (Day 4, 7 and 10) blood samples were collected via conscious tail venous puncture 2 hours±1 minute post-AM dose. Immediately following the last blood collection, rats were anesthetized with isoflurane, tissues harvested, and animals sacrificed. Endpoint kidney weights and indices were obtained. Urine samples were immediately flash-frozen in liquid N2 and stored at −80° C. until analyzed. Whole blood samples collected on K3EDTA were processed appropriately for the production of plasma for PK measurements.

[2] = test system: AT1R transgenic rats; assay: AT1R transgenic rat model of FSGS; assay type: in vivo; settings: oral once daily 3 mg/kg or 10 mg/kg; UniNX and AngII infusion; up to 3 weeks of treatment
Method: The AT1R transgenic rat model of FSGS is characterized by podocyte-specific expression of human AT1R. […] See Zhou et al., Science (2017), vol. 358 (6368), 1332-1336. In the present study, pathophysiology in AT1R transgenic rats was accelerated with unilateral nephrectomy (UniNX) and minipump AngII infusion. Compound 100 was dosed orally once daily at 3 mg/kg or 10 mg/kg, and the urine protein creatinine ratio was determined at −1, 0, 1, 2, and 3 weeks of treatment.

[3] = Drug exposure in human kidney organoid implanted under the rat kidney capsule after oral dosing; assay type: in vivo; settings: 10 mg/kg PO QD for 3 consecutive days, necropsy after 3 days
Method: Initially a space was created under the kidney capsule with angled fine forceps. A 22G blunt needle was used to further open the space under the kidney capsule. An angled cut was made at the tip of the 18G feeding tube attached to a 1 mL syringe. The 18G feeding tube was pre-wet with APEL2 medium, and one organoid from the dish containing APEL2 with the 18G feeding tube was carefully aspirated, keeping the entire organoid close to the tip of the 18G feeding tube, and not aspirating organoid into the syringe. An 18G feeding tube containing the organoid was inserted into the space created under the kidney capsule, and the organoid was injected towards the back end of the created space. The animal was closed, and then the procedure was repeated on the second kidney. After the second transplant, the animal was closed again and allowed to recover from anesthesia. The next organoid was started to be removed from TW (2+1 spare organoids) upon closing of animal after second kidney capsule transplant.
Compound 100 was administered to animals after transplant orally, once-daily as follows:
After 3 days, necropsy was performed to study distribution of compound 100 in the animal.

Row | Compound | urinary albumin excretion ([1]; 30 mg/kg BID dosing, at 7 and 10 days) | urinary albumin excretion ([1]; 30 mg/kg QD dosing, at 10 days) | urinary albumin excretion ([1]; 30 mg/kg once (QD) or twice (BID) daily, following injury with PAN) | albuminuria [1] | efficacy (urine protein creatinine ratio) [2] | drug exposure in implanted organoid [3]
1 | O=c1[nH]ncc(N2CCc3c(ncnc3Oc3ccc(F)cc3C(F)(F)F)C2)c1Cl [Compound 100, 4-chloro-5-[4-[4-fluoro-2-(trifluoromethyl)phenoxy]-5H,6H,7H,8H-pyrido[3,4-d]pyrimidin-7-yl]-2,3-dihydropyridazin-3-one] | Significant reductions | Significant reductions | reduced urinary albumin excretion | effective in reducing albuminuria | efficacious | drug exposure in the implanted organoid; also recorded: drug exposure in an implanted organoid
2 | NC(=O)c1ncn([C@@H]2O[C@H](CO)[C@@H](O)[C@H]2O)c1O [Mizoribine, mizoribine, reference compound] | – | – | – | efficacious in reducing albuminuria | – | –
